Results reported in patent publication US20260083693A1, “PHARMACEUTICAL COMPOSITION FOR THE ACUTE TREATMENT OF MIGRAINE AND OTHER FORMS OF HEADACHE” (priority 2024, published 2026).
Like-named read-outs stand apart in the source and are kept apart here.

Key:
[1] = cited from earlier work
[2] = topical sustained release composition, at three hours; cited from earlier work
[3] = Pharmacokinetic (bioavailability) study of ibuprofen + ketoprofen nasal spray in healthy adult human subjects, plasma by LC-MS/MS
Experimental: Pharmacokinetic study to evaluate the bioavailability of the pharmaceutical composition prepared according to the present disclosure.
Blood samples were centrifuged at about 4000 rpm for 10 minutes at 4±2° C. to separate the plasma. The resulting plasma was equally transferred into 2. These aliquots were stored frozen, upright in a freezer within 90 minutes of blood collection time of each sample at a temperature of −70° C. […] until they were analyzed.
Sample values below the LLOQ were reported as Below Quantification Limit (BQL). Pharmacokinetic parameters were calculated using Phoenix® WinNonlin® software (version: 8.3). The following parameters were calculated:
Primary pharmacokinetic parameters: Cmax, AUC0-t and AUC0-∞ Secondary pharmacokinetic parameters: tmax, t1/2, Kel and AUC_% Extrap_obs.

| Compound | peak plasma concentration ([1]; oral ketoprofen, dose 50 mg) | time of peak plasma concentration ([1]; oral ketoprofen, dose 50 mg) | peak plasma concentration of ketoprofen [2] | AUC(0-inf) ([3]; human, in vivo, inhaled or intranasal, AUC0-∞ range over the dose range of the composition, intranasal, dosage unit 0.4-8 mg ibuprofen and 0.025-0.48 mg ketoprofen) | Cmax ([3]; human, in vivo, inhaled or intranasal, plasma Cmax range over the dose range of the composition, intranasal, dosage unit 0.4-8 mg ibuprofen and 0.025-0.48 mg ketoprofen) | Cmax ([3]; human, in vivo, inhaled or intranasal, plasma Cmax, intranasal, 8 sprays (100 μL each), printed as equivalent to 1.816 mg ibuprofen and 0.24 mg ketoprofen) | Cmax lower than expected Cmax of minimum approved oral dose ([3]; intranasal 8 sprays vs oral 200 mg ibuprofen / 12.5 mg ketoprofen) | expected Cmax for the minimum approved oral dose ([1]; oral ibuprofen 200 mg, as reported in the literature) | maximum plasma concentration ([1]; oral ibuprofen, 400 mg) | time of maximum plasma concentration ([1]; oral ibuprofen, 400 mg) | peak plasma concentration ([1]; oral ibuprofen, dose 100 mg) | time of peak plasma concentration ([1]; oral ibuprofen, dose 100 mg) |
| --- | --- | --- | --- | --- | --- | --- | --- | --- | --- | --- | --- | --- |
| CC(C(=O)O)c1cccc(C(=O)c2ccccc2)c1 (stereo not drawn) [ketoprofen] | 2.6 µg/mL | 134 min | at most 450 ng/ml |  |  |  |  |  |  |  |  |  |
| CC(C)Cc1ccc(C(C)C(=O)O)cc1 (stereo not drawn) [ibuprofen] |  |  |  | 133 to 1920 ng·h/mL | 41.4 to 828 ng/mL | 165 ng/mL | approximately 100 times | approximately 17.3 μg/mL | 32.8 µg/mL | 90 min | 9.5 µg/mL | 116 min |
